Here are results for ten molecules from ChEMBL document CHEMBL1201862, “PubChem BioAssay data set” (2004).

Common to all, as to assay: growth of human tumour cells (NCI), 48 h
Assay [1] has as its system ACHN.
Assay [2] has as its system DLD-1.
For assay [3], the system named is DMS-114.
For assay [4], the system named is DMS-273.
Assay [5] deals with HOP-18.
Assay [6] has as its system HOP-92.
Assay [7] has as its system KM-20L2.
For assay [8], the system named is LXFL 529.
For assay [9], the system named is M19-MEL.
For assay [10], the system named is NCI-H226.
Assay [11] deals with RPMI-8226.
Assay [12] has as its system SNB-78.
The test system of assay [13] is SW-620.
Assay [14] has as its system TK-10.
In assay [15] the test system is HCC 2998.
For assay [16], the system named is SR.
The subject of assay [17] is XF498.
In assay [18] the test system is 786-0.
For assay [19], the system named is MCF7.
Assay [20] relates to NCI/ADR-RES.

Structures are written as SMILES.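 Following 48 hours of exposure in 96-well plates, responses at five concentrations were used to interpolate endpoints linearly. GI50 is the concentration that inhibits growth by half.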 Calls of active or inactive are those of the source. Rule as the data show it: active = GI50 up to about 1.1 µM and inactive = higher.

Take `CCOCc1cc(=O)c2c(O)cc3c(c2o1)CCC(C)(C)O3`: the GI50 in [1] was > 100 µM (inactive); in [2], > 100 µM (inactive); in assay [3], > 100 µM (inactive); in assay [4], > 100 µM (inactive); in [5] it was > 100 µM (inactive); in assay [6], 4.86 µM (inactive). The GI50 in assay [7], in assay [8], in [9], in assay [10], in assay [11] and in assay [12] was > 100 µM (inactive) in each case. The GI50 in [13] and in [14] was > 100 µM (inactive) throughout.

With `COC(=O)C(=O)C(C(=O)Nc1cccc(C)c1C)C1Sc2ccccc2NC1=O` (stereo not drawn), the GI50 was > 25 µM (inactive) in assay [1]; 11.2 µM (inactive) in [2]; 5.83 µM (inactive) in [3]; 11.8 µM (inactive) in assay [4]; 15.6 µM (inactive) in assay [15]; > 25 µM (inactive) in [5]. Further, the GI50 in assay [6] is 10.4 µM (inactive); in assay [7] it was 8.67 µM (inactive); in assay [8], > 25 µM (inactive); in assay [9], 14.6 µM (inactive); in assay [10], 16.7 µM (inactive); in assay [11], 9.48 µM (inactive). Also, the GI50 in assay [12] was 21.2 µM (inactive); in assay [16], 13.7 µM (inactive); in assay [13], 8.55 µM (inactive); in assay [14], > 25 µM (inactive); in assay [17], > 25 µM (inactive).

As to `O=C1CSc2cc([N+](=O)[O-])ccc2N1`, the GI50 in [18], in assay [1], in [2], in [3], in assay [4] and in assay [15] was > 100 µM (inactive) throughout. For the same molecule, the GI50 in [5], in assay [7], in assay [8], in assay [9], in assay [10] and in assay [12] was > 100 µM (inactive) each time. For the same molecule, the GI50 in [13], in [14] and in assay [17] was > 100 µM (inactive) throughout.

As for `Cc1cc(C)c(C2=NO[C@@H]3[C@H]2C(=O)C=C2N(Cc4ccccc4)CCO[C@@]23O)c(C)c1`, the GI50 in assay [2], in assay [4], in [15], in [5], in assay [6] and in assay [7] was > 100 µM (inactive) each time. In addition, the GI50 in [9], in assay [19], in assay [10], in assay [20], in assay [11] and in assay [12] was > 100 µM (inactive) in each case. The GI50 in assay [13] and in assay [17] was > 100 µM (inactive) in each case.

As for `CC1CC=CC(O)C1` (stereo not drawn), the GI50 in assay [2], in assay [3], in assay [4], in [15], in [5] and in [6] was > 100 µM (inactive) throughout. The GI50 in assay [7], in assay [9], in [19], in assay [10], in [20] and in [11] was > 100 µM (inactive) each time. Also, the GI50 in assay [12], in assay [13] and in [17] was > 100 µM (inactive) each time.

With `C[C@H](C(=O)O)C(=O)NC(=O)N(Cc1ccccc1)N=O`, the GI50 in [18], in [1], in [2], in [3], in assay [4] and in [15] was > 100 µM (inactive) in each case. The GI50 was 0.0525 µM (active) in assay [5]; > 100 µM (inactive) in [7]; > 100 µM (inactive) in assay [8]; > 100 µM (inactive) in [9]; > 100 µM (inactive) in assay [11]; > 100 µM (inactive) in assay [12]. In addition, the GI50 in [13], in [14] and in [17] was > 100 µM (inactive) throughout.

`CN(C)CCNC(=O)c1ccc(Cl)c2ccc(-c3ccccc3)nc12`: the GI50 in assay [2] was 2.92 µM (inactive); in [4], 3 µM (inactive); in assay [15] it was 4.67 µM (inactive); in [5], 3.26 µM (inactive); in assay [6], 2.02 µM (inactive); in assay [7], 2.62 µM (inactive). The GI50 in assay [9] is 3.69 µM (inactive); in assay [19] it was 3.31 µM (inactive); in assay [10] it was 2.32 µM (inactive); in [20], 2.42 µM (inactive); in [11], 2.51 µM (inactive); in assay [12], 6.32 µM (inactive). In addition, the GI50 in assay [13] is 2.19 µM (inactive); in assay [17], 3.16 µM (inactive).

As for `CC(C)C(=O)N1C(=O)O[C@@H](c2ccccc2)[C@H]1C`, the GI50 in assay [18], in [1], in assay [2], in [3], in assay [4] and in assay [15] was > 100 µM (inactive) each time. Moreover, the GI50 in assay [5], in assay [6], in assay [7], in assay [8], in assay [9] and in assay [10] was > 100 µM (inactive) throughout. In addition, the GI50 in assay [11], in assay [12], in assay [16], in assay [14] and in assay [17] was > 100 µM (inactive) in each case.

Regarding `COc1cc(C2c3cc4c(cc3[C@@H](Nc3cccc([N+](=O)[O-])c3)C3COC(=O)[C@H]23)OCO4)cc(OC)c1O` (stereo partly drawn), the GI50 in assay [2] is 1.93 µM (inactive); in assay [3], 2.7 µM (inactive); in [4], 0.615 µM (active); in assay [15], 2.33 µM (inactive); in [5], 3.37 µM (inactive); in [6] it was 2.92 µM (inactive). For the same molecule, the GI50 in assay [7] was 3.64 µM (inactive); in assay [9] it was 4.01 µM (inactive); in assay [19] it was 0.944 µM (active); in assay [10] it was 1.85 µM (inactive); in assay [20] it was 8.07 µM (inactive); in assay [11] it was 3.05 µM (inactive). Besides, the results for the GI50 in assay [12], in [13] and in assay [17] were 5.66 µM (inactive), 2.28 µM (inactive) and 3.13 µM (inactive), respectively.

`OCC1C2C=CC(O2)[C@H]1CO` (stereo partly drawn): the GI50 was > 100 µM (inactive) in assay [18]; > 100 µM (inactive) in assay [1]; > 100 µM (inactive) in assay [2]; 92.7 µM (inactive) in assay [3]; > 100 µM (inactive) in assay [4]; > 100 µM (inactive) in assay [15]. Further, the GI50 in assay [5], in [6], in [7], in [8], in [9] and in [10] was > 100 µM (inactive) in each case. Also, the GI50 in [11], in assay [12], in [16], in assay [13] and in [14] was > 100 µM (inactive) in each case.
